Experimental data as given in US12162855B2, “Tetrahydroquinolino derivatives for the treatment of metastatic and chemoresistant cancers” (THE TRUSTEES OF PRINCETON UNIVERSITY, priority 2018, dated 2024).
“And” between values parts separate entries of the source, which are not always exact repeats. Equal entries are not always repeated. Marks after values point to notes of the source that are not given here.

Columns and labels:
Aldh1a1 = target: T1, Aldh1a1 (Homo sapiens, UniProt P00352); experiment: ALDEFLUOR assay in MCF7 cells transduced with human Aldh1a1; format: cell-based; conditions: concentrations below 10 μM
T1 construct: expressed in transfected cells; host or cells: MCF7, lentiviral pLex vector
T1 sequence (P00352 1-501): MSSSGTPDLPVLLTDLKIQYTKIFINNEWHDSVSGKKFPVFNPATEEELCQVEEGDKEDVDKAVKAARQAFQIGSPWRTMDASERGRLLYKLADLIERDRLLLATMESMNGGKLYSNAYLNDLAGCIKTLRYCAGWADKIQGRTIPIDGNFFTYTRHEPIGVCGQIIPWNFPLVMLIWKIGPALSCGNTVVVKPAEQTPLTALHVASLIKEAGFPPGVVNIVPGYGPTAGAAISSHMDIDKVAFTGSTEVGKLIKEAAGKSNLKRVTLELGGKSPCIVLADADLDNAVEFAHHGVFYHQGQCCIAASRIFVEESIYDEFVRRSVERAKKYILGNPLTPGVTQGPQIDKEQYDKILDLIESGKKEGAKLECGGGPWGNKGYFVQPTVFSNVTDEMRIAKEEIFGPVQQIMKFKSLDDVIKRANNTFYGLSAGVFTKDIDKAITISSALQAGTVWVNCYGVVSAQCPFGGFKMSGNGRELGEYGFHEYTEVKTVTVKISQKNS
Experimental: The coding sequences of Aldh1a1, Aldh1a2, Aldh1a3 and Aldh3a1 were cloned from cDNA made from pooled human reference RNA samples. Cloned sequences flanked by Age1 and Xho1 restriction sites were inserted into the pLex lentiviral plasmid. Clones were sequenced and compared against NCBI expressed sequence tags (ESTs) for accuracy. […]. Viruses were collected and filtered at 0.45 μm, then cells were transduced using polybrene (8 μg/mL) for 12 hours, followed by culture with 1 μg/mL puromycin for the duration of experiments. All viral transduction and selection was performed on a cell population-wide basis.
Cells were counted, centrifuged and resuspended at 1,000,000 cells/mL in ALDEFLUOR™ buffer (Stemcell Technologies). ALDEFLUOR™ substrate (Stemcell Technologies, 1:200) and test compound or 1 mM DEAB were added to cell suspension and incubated at 37° C. for 45 minutes with vortexing every 15 minutes. Cells were centrifuged and resuspended in ALDEFLUOR™ buffer with DAPI at 5 μg/mL. Samples were analyzed with the BD LSR2 flow cytometry platform. Gating was performed using DEAB as a negative control.

[1] = Plasma pharmacokinetics in mice by LC/MS/MS; format: in vivo, mouse; conditions: for half-life / AUC(0-inf) / Clearance: mice, dose 25 mg/kg; for AUC(0-inf): noncompartment model
Experimental: Pharmacokinetic experiments were performed on 16-week old C57BL6 male mice. Mice were administered MBE1.5 (15% DMSO, 5% Kolliphor EL, 80% PBS) via IP injection. Blood was collected by terminal cardiac puncture at 15 minutes, 30 minutes, 1 hour, 3 hours, and 24 hours post-injection. Serum was obtained by blood separation via centrifugation at 16200 RCF for 1 min. Tissues were then collected following exsanguination. Serum and tissues were rapidly frozen in liquid nitrogen and submitted for pharmacokinetic evaluation.
Plasma MBE1.5 concentration was measured with LC/MS/MS assay in mice PK studies.
Chemicals: MBE1.5 and MBE2.0 were supplied as stocks (1 mg/mL) in MeOH with 1% DMSO. MBE2.0 was used as internal standard. HPLC grade acetonitrile and water were purchased from J.T. Baker (Center Valley, PA). The mouse plasma was purchased from Innovative Research (Novi, MI) for the preparation of plasma calibration standards.
Preparation of standard solution: MBE1.5 stock was diluted in control mice plasma to obtain calibration range from 8.2 ng/mL to 18 μg/mL. 1 μg/mL MBE2.0 in methanol was used as a working internal standard (IS).
Sample preparation: The plasma standard and mouse plasma samples (204) were spiked with 54 μL IS and deproteinized with 1204 acetonitrile and methanol (v/v 5:1). After centrifugation at 13000 rpm for 15 minutes, 254 of the supernatant was analyzed by LC-MS.
Liquid Chromatographic/Mass spectrometry: Quantitation of MBE1.5 was performed using TSQ Quantum triple quadruple mass spectrometer equipped with an API electrospray ionization (ESI) source, a Surveyor MS pump, a Surveyor Autosampler, with Xcalibur data acquisition software (ThermoElectron, San Jose, CA, USA).
LC conditions were as follows: mobile phase A: aqueous solution (0.1% formic acid); mobile phase B: acetonitrile (0.1% formic acid); flow rate 500 μL/min; gradient elution, 0 to 1 minute, 60% A; 1 to 2.5 minutes, 60% to 20% A; 2.5 to 7.0 minutes, 0% A, 7.0 to 9.0 minutes 0% A, 9.0 to 11.0 minutes, 0% to 60% A; and column: Luna® C18, 150×4.6 mm, 5 μm (Phenomenex, Torrance, CA). The retention times for MBE1.5 and IS were 6.3 minutes and 6.6 minutes, respectively.
MS/MS conditions were as follows: in single reaction monitoring mode, m/z 313.2/178.2 (MBE1.5), m/z 281.2/119.1 (MBE2.0, IS); ion spray voltage, 4500 v; capillary temperature 350° C.; sheath gas pressure 20 arbitrary units; Aux gas pressure 50 arbitrary units; collision pressure 1.5 arbitrary units. The collision energy and tube lens were optimized for each compound.
Calculation: Plasma calibration standards were used for the quantitation of MBE in plasma samples. The log linear regression was used for calibration curve to determine the concentration in plasma samples.
Preliminary PK data was analyzed using noncompartment model by Winnolin 2.0.

MDA-MB-468 cells = experiment: Primary tumor xenograft, MDA-MB-468 cells in mammary fat pad; format: in vivo; conditions: 12 days
Experimental: In yet another xenograft experiment, mice were injected with MDA-MB-468 cells via mammary fat pad, and were randomized following injection. Mice were treated with MBE1.5 (25 mg/kg daily, n=6) or vehicle (n=12), and paclitaxel (12.5 mg/kg every other day) for 12 days. Primary tumor measurements were taken by caliper between each treatment group.

[2] = male, C57BL6, mouse, plasma, ip, 25 mg/kg, i.p., calculation: time point to 3 hr
[3] = male, C57BL6, mouse, plasma, ip, 25 mg/kg, i.p., calculation: time point to 24 hr

With `CCc1cnccc1C(=O)Nc1cc2c(cc1F)NC(=O)CC2` [MBE1, 3-ethyl-N-(7-fluoro-2-oxo-1,2,3,4-tetrahydroquinolin-6-yl)isonicotinamide] the “inhibition of Aldh1a1 activity (FIG. 2A)” value (Aldh1a1) was “does not inhibit”.
For `CCc1ccccc1C(=O)Nc1cc2c(cc1F)NC(=O)CC2` [MBE1.5, 2-ethyl-N-(7-fluoro-2-oxo-1,2,3,4-tetrahydroquinolin-6-yl)benzamide], the “Concentration in mouse plasma, individual mice” value ([1]; Time 0 hr, mice #1-#3, LOD 8.2 ng/mL) was “<LOD”, the “Concentration in mouse plasma, individual mice” value ([1]; Time 0.5 hr, i.p., mice #1-#3) was 6932 ng/mL and 3411 ng/mL and 4650 ng/mL and the “Concentration in mouse plasma, individual mice” value ([1]; Time 1 hr, i.p., mice #1-#3) was 2842 ng/mL and 6295 ng/mL and 2815 ng/mL. For the same molecule, the “Concentration in mouse plasma, individual mice” value ([1]; Time 3 hr, i.p., mice #1-#3) was 1704 ng/mL and 3447 ng/mL and 849 ng/mL, the “Concentration in mouse plasma, individual mice” value ([1]; Time 24 hr, i.p., mice #1-#3, LOD 8.2 ng/mL) was “<LOD” and the “Concentration in mouse plasma, individual mice, forced to calculate” value ([1]; Time 24 hr, i.p., mice #1-#3, integrated peak area less than LOD) was 0.002* μg/ml and 0.006* μg/ml and 0.005* μg/ml. The “Concentration in mouse plasma, Mean” value ([1]; Time 24 hr, i.p., LOD 8.2 ng/mL) was “<LOD”, the concentration at 0.5 h ([1]; male, C57BL6, mouse, plasma, ip, 25 mg/kg, Time 0.5 hr) was 5000 ng/mL and the concentration at 1 h ([1]; male, C57BL6, mouse, plasma, ip, 25 mg/kg, Time 1 hr) was 3980 ng/mL. For the same molecule, the concentration at 3 h ([1]; male, C57BL6, mouse, plasma, ip, 25 mg/kg, Time 3 hr) was 2000 ng/mL, the concentration at 24 h ([1]; male, C57BL6, mouse, plasma, ip, 25 mg/kg, Time 24 hr, i.p., integrated peak area less than LOD, read-out: Concentration in mouse plasma, Mean, forced to calculate) was 4 ng/mL and the half-life [1, 2] was 1.9 h. It also gave an AUC(0-inf) [1, 2] of 15700 ng·h/mL, a half-life [1, 3] of 2.32 h and an AUC(0-inf) [1, 3] of 16900 ng·h/mL. For the same molecule, the Clearance ([1]; i.p., calculation: time point to 3 hr) was 39.87 mL/h, the Clearance ([1]; i.p., calculation: time point to 24 hr) was 36.96 mL/h and the complete tumor elimination (MDA-MB-468 cells; 25 mg/kg daily (n=6) with paclitaxel 12.5 mg/kg every other day) was “tumors of two mice in the MBE1.5 treatment group were completely eliminated”. The “gross toxicity, body mass (FIG. 15A)” value (MDA-MB-468 cells; 25 mg/kg daily with paclitaxel 12.5 mg/kg every other day) was “no gross toxicity” and the “tumor volume (FIG. 15B)” value (MDA-MB-468 cells; 25 mg/kg daily with paclitaxel 12.5 mg/kg every other day, MDA-MB-468 primary tumors) was “caused regression of primary breast tumors”.
